For experiment [1], the species on record is Homo sapiens. Kind of experiment: Inhibition of alpha-thrombin-induced human gel filtered platelet aggregation (GFP). The experiment is classed as functional.
For experiment [2], the species on record is Homo sapiens. Kind of experiment: Inhibition of TRAP-6 (SFLLRN-NH2)-induced human gel filtered platelet aggregation (GFP). Type of experiment: functional.
The target in experiment [3] is T1, Proteinase-activated receptor 1 (Homo sapiens, UniProt P25116).
T1 sequence (P25116 whole entry): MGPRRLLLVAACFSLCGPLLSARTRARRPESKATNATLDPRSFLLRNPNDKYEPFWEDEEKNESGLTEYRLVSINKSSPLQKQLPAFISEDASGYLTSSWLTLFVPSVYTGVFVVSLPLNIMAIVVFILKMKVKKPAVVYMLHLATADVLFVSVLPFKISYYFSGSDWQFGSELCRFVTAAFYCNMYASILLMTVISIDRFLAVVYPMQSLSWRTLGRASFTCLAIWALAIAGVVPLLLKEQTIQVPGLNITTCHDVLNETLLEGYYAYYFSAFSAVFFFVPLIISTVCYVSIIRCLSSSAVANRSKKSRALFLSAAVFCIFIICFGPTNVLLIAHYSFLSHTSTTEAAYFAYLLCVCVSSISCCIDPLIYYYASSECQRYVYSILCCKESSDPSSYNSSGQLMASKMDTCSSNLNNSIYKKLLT
Description: Inhibition of [3H]S-(p-F-Phe)-Har-L-Har-KY-NH2 binding to a thrombin receptor (PAR-1) membrane preparation.

Numbered stars: 1 amine (or outer) side, 2 acyl side, 3 side chain; on linkers, the order of the positions; unused ones are H or OH. Square brackets hold non-standard residues; d marks the D form. Peptide text beside a SMILES is read from it. * marks the point of attachment. ξ: configuration not given here. Phe(4-F)ψ(2,4-Thz) = O=C(c1csc([C@H](Cc2ccc(F)cc2)N[*:1])n1)[*:2]; Phe(4-guanidino) = N=C(N)Nc1ccc(C[C@H](N)C(=O)O)cc1; X1 = COc1ccc(C[C@H](N[*:1])c2nc(C(=O)[*:2])cs2)cc1; Phe(4-F) = N[C@@H](Cc1ccc(F)cc1)C(=O)O; hArg = N=C(N)NCCCC[C@H](N)C(=O)O; Cha = N[C@@H](CC1CCCCC1)C(=O)O; Nphe = O=C(O)CNCc1ccccc1; X2 = O=C(/C=C/c1ccccc1)*; ξV = CC(C)C(N)C(=O)O; Sar = CNCC(=O)O

For the compound `CNCC(=O)N[C@@H](Cc1ccc(F)cc1)c1nc(C(=O)N[C@@H](CC2CCCCC2)C(=O)N[C@@H](CCCCN=C(N)N)C(=O)N[C@@H](Cc2ccccc2)C(N)=O)cs1` (H-[Sar][Phe(4-F)ψ(2,4-Thz)][Cha][hArg]F-NH2), the IC50 in the experiment listed under Homo sapiens [1] turned out to be 59 µM; in the experiment filed under Homo sapiens [2], 7.7 µM.

On to `CC(C)C[C@H](NC(=O)[C@H](CC(C)C)NC(=O)[C@H](Cc1ccccc1)NC(=O)[C@@H](N)CO)C(=O)N[C@@H](CCCN=C(N)N)C(=O)N[C@@H](CC(N)=O)C(N)=O`, for which the IC50 in experiment [3] was determined as 73 µM; in the experiment listed under Homo sapiens [2], 0.3 µM.

As to `CC(=O)N[C@@H](Cc1ccc(F)cc1)c1nc(C(=O)N[C@@H](CC2CCCCC2)C(=O)N[C@@H](CCCNC(=N)N)C(=O)NCc2ccccc2)c(C)o1`, the results for the IC50 (in experiment [3]; in the experiment filed under Homo sapiens [1]; in the experiment listed under Homo sapiens [2]) were 30 µM, 18 µM and 19 µM, respectively.

As for `CNCC(=O)N[C@@H](Cc1ccc(F)cc1)c1nc(C(=O)N[C@@H](CC2CCCCC2)C(=O)N[C@@H](CCCNC(=N)N)C(=O)NCC(C)c2ccccc2)cs1` (stereo partly drawn), the IC50 in experiment [3] is 24 µM; in the experiment listed under Homo sapiens [1], 40 µM; in the experiment filed under Homo sapiens [2], 16 µM.

For the compound `CC[C@H](C)[C@H](N)C(=O)N[C@@H](Cc1ccc(F)cc1)c1nc(C(=O)N[C@@H](CC2CCCCC2)C(=O)N[C@@H](CCCN=C(N)N)C(=O)N[C@@H](Cc2ccccc2)C(N)=O)cs1` (H-I[Phe(4-F)ψ(2,4-Thz)][Cha]RF-NH2), the IC50 in experiment [3] was determined as 3.9 µM; in the experiment filed under Homo sapiens [1], 32 µM; in the experiment filed under Homo sapiens [2] it was 4 µM.

On to `CNCC(=O)N[C@@H](Cc1ccc(F)cc1)c1nc(C(=O)N[C@@H](CC2CCCCC2)C(=O)N[C@@H](CCCN=C(N)N)C(=O)NCCc2ccccc2)cs1`, for which the IC50 in experiment [3] was determined as 5.6 µM; in the experiment filed under Homo sapiens [1], 27 µM; in the experiment listed under Homo sapiens [2], 10 µM.

With `CNCC(=O)N[C@@H](Cc1ccc(F)cc1)c1nc(C(=O)N[C@H](CC2CCCCC2)C(=O)N[C@@H](CCCNC(=N)N)C(=O)N[C@@H](Cc2ccccc2)C(N)=O)cs1`, the concentration for half-maximal inhibition (IC50) came to 94 µM in experiment [3], 96 µM in the experiment listed under Homo sapiens [1] and 42 µM in the experiment filed under Homo sapiens [2].

Consider `CNCC(=O)N[C@@H](Cc1ccc(F)cc1)c1nc(C(=O)N[C@@H](CC2CCCCC2)C(=O)N[C@@H](CCCNC(=N)N)C(=O)N[C@@H](CC2CCCCC2)C(N)=O)cs1` (H-[Sar][Phe(4-F)ψ(2,4-Thz)][Cha]R[Cha]-NH2), for which the IC50 in experiment [3] came to 2.7 µM.

Turning to `CNCC(=O)N[C@@H](Cc1ccc(F)cc1)c1nc(C(=O)N[C@@H](CC2CCCCC2)C(=O)N[C@@H](CCCN=C(N)N)C(=O)N[C@@H](CC2CCCCC2)C(N)=O)cs1` (H-[Sar][Phe(4-F)ψ(2,4-Thz)][Cha]R[Cha]-NH2), the figures for the IC50 in the experiment filed under Homo sapiens [1] and in the experiment listed under Homo sapiens [2] were 46 µM and 6.8 µM, respectively.

For the compound `NCC(=O)N[C@@H](Cc1ccc(F)cc1)c1nc(C(=O)N[C@@H](CC2CCCCC2)C(=O)N[C@@H](CCCN=C(N)N)C(=O)NCc2ccccc2)co1`, the results for the IC50 (in experiment [3]; in the experiment filed under Homo sapiens [1]; in the experiment filed under Homo sapiens [2]) were 5.4 µM, 17 µM and 10 µM, respectively.

Take `NCC(=O)N[C@@H](Cc1ccc(F)cc1)c1nc(C(=O)N[C@@H](CC2CCCCC2)C(=O)N[C@@H](CCCN=C(N)N)C(N)=O)co1`: the IC50 came out at 6.2 µM in experiment [3], 19 µM in the experiment listed under Homo sapiens [1] and 13 µM in the experiment listed under Homo sapiens [2].

On to `NC(=O)[C@H](Cc1ccccc1)NC(=O)[C@H](CCCN=C(N)N)NC(=O)[C@H](CC1CCCCC1)NC(=O)c1csc([C@@H](N)Cc2ccc(F)cc2)n1`, for which the IC50 in experiment [3] was 8 µM; in the experiment filed under Homo sapiens [1] it was 28 µM; in the experiment listed under Homo sapiens [2], 16 µM.

Take `CNCC(=O)N[C@@H](Cc1ccccc1)c1nc(C(=O)N[C@@H](CC2CCCCC2)C(=O)N[C@@H](CCCNC(=N)N)C(=O)NCc2ccccc2)c(C)o1`: the IC50 in experiment [3] is 60 µM; in the experiment filed under Homo sapiens [1], 45 µM; in the experiment filed under Homo sapiens [2] it was 36 µM.

On to `COc1ccc(C[C@H](NC(=O)C(N)C(C)C)c2nc(C(=O)N[C@@H](CC3CCCCC3)C(=O)N[C@@H](CCCNC(=N)N)C(=O)N[C@@H](Cc3ccccc3)C(N)=O)cs2)cc1` (stereo partly drawn) (H-[ξV][X1][Cha]RF-NH2), for which the IC50 in experiment [3] was determined as 8.2 µM.

With `CC(C)C(N)C(=O)N[C@@H](Cc1ccc(F)cc1)c1nc(C(=O)N[C@@H](CC2CCCCC2)C(=O)N[C@@H](CCCN=C(N)N)C(=O)N[C@@H](Cc2ccccc2)C(N)=O)cs1` (stereo partly drawn) (H-[ξV][Phe(4-F)ψ(2,4-Thz)][Cha]RF-NH2), the figures for the IC50 in the experiment filed under Homo sapiens [1] and in the experiment listed under Homo sapiens [2] were 22 µM and 4.6 µM, respectively.

As to `CC[C@H](C)[C@H](N)C(=O)N[C@@H](Cc1ccc(F)cc1)c1nc(C(=O)N(CC(=O)N[C@@H](CCCN=C(N)N)C(=O)N[C@@H](Cc2ccccc2)C(N)=O)Cc2ccccc2)cs1` (H-I[Phe(4-F)ψ(2,4-Thz)][Nphe]RF-NH2), the IC50 in experiment [3] is more than 100 µM; in the experiment filed under Homo sapiens [1], more than 100 µM; in the experiment filed under Homo sapiens [2], 80 µM.

In the case of `Cc1oc([C@H](Cc2ccc(F)cc2)NC(=O)C(N)CN)nc1C(=O)N[C@@H](CC1CCCCC1)C(=O)N[C@@H](CCCN=C(N)N)C(=O)NCc1ccccc1` (stereo partly drawn), the IC50 stood at 53 µM in experiment [3], 24 µM in the experiment listed under Homo sapiens [1] and 25 µM in the experiment filed under Homo sapiens [2].

As to `CNCC(=O)N[C@@H](Cc1ccc(F)cc1)c1nc(C(=O)N[C@@H](CC2CCCCC2)C(=O)N[C@@H](CCCN=C(N)N)C(=O)N[C@@H](Cc2ccc(O)cc2)C(N)=O)cs1` (H-[Sar][Phe(4-F)ψ(2,4-Thz)][Cha]RY-NH2), the IC50 is 4.1 µM in experiment [3], 45 µM in the experiment filed under Homo sapiens [1] and 5.5 µM in the experiment listed under Homo sapiens [2].

Turning to `CNCC(=O)N[C@@H](Cc1ccc(F)cc1)c1nc(C(=O)N[C@@H](CCCN=C(N)N)C(=O)N[C@@H](CCCN=C(N)N)C(=O)N[C@@H](Cc2ccccc2)C(N)=O)cs1` (H-[Sar][Phe(4-F)ψ(2,4-Thz)]RRF-NH2), the IC50 in the experiment filed under Homo sapiens [1] and in the experiment filed under Homo sapiens [2] was more than 100 µM each time.

In the case of `CNCC(=O)N[C@@H](Cc1ccc(F)cc1)c1nc(C(=O)N2CCCC(C(=O)N[C@@H](CCCNC(=N)N)C(=O)N[C@@H](Cc3ccccc3)C(N)=O)C2)cs1` (stereo partly drawn), the IC50 (in experiment [3]; in the experiment filed under Homo sapiens [1]; in the experiment filed under Homo sapiens [2]) was more than 100 µM in each case.

For the compound `CC(C)C[C@H](NC(=O)[C@H](Cc1ccc(NC(=N)N)cc1)NC(=O)[C@H](Cc1ccc(F)cc1)NC(=O)/C=C/c1ccccc1)C(=O)N[C@@H](CCCN=C(N)N)C(=O)N[C@@H](CCCN=C(N)N)C(N)=O` (X2-[Phe(4-F)][Phe(4-guanidino)]LRR-NH2), the IC50 turned out to be 0.0075 µM in experiment [3] and 0.021 µM in the experiment listed under Homo sapiens [2].

On to `CNCC(=O)N[C@@H](Cc1ccc(F)cc1)c1nc(C(=O)N[C@@H](CC2CCCCC2)C(=O)N[C@@H](CCCN=C(N)N)C(=O)N[C@@H](Cc2ccccc2)C(N)=O)cs1`, for which the IC50 stood at 5.7 µM in experiment [3], 41 µM in the experiment filed under Homo sapiens [1] and 14 µM in the experiment filed under Homo sapiens [2].

For `CNCC(=O)N[C@@H](Cc1ccc(F)cc1)c1nc(C(=O)N[C@@H](CCCCN)C(=O)N[C@@H](CCCNC(=N)N)C(=O)NCCc2ccccc2)cs1`, the IC50 (in experiment [3]; in the experiment listed under Homo sapiens [1]; in the experiment filed under Homo sapiens [2]) was more than 100 µM throughout.

As to `CNCC(=O)N[C@@H](Cc1ccc(F)cc1)c1nc(C(=O)N[C@@H](CC2CCCCC2)C(=O)N[C@@H](CCCN=C(N)N)C(=O)NCc2ccccc2)co1`, the IC50 is 1.6 µM in experiment [3], 25 µM in the experiment filed under Homo sapiens [1] and 6.6 µM in the experiment filed under Homo sapiens [2].

For `COc1ccc(C[C@H](NC(=O)C(N)C(C)C)c2nc(C(=O)N[C@@H](CC3CCCCC3)C(=O)N[C@@H](CCCN=C(N)N)C(=O)N[C@@H](Cc3ccccc3)C(N)=O)cs2)cc1` (stereo partly drawn) (H-[ξV][X1][Cha]RF-NH2), the values for the IC50 in the experiment listed under Homo sapiens [1] and in the experiment filed under Homo sapiens [2] were 49 µM and 9.5 µM, respectively.

As to `CNCC(=O)N[C@@H](Cc1ccc(F)cc1)c1nc(C(=O)N[C@@H](CCCNC(=N)N)C(=O)N[C@@H](CCCNC(=N)N)C(=O)N[C@@H](Cc2ccccc2)C(N)=O)cs1` (H-[Sar][Phe(4-F)ψ(2,4-Thz)]RRF-NH2), the IC50 in experiment [3] is more than 100 µM.

Regarding `CNCC(=O)N[C@@H](Cc1ccc(F)cc1)c1nc(C(=O)N[C@@H](CC2CCCCC2)C(=O)N[C@@H](CCCNC(=N)N)C(=O)NCc2ccccc2)cs1`, the IC50 came out at 10 µM in experiment [3], 27 µM in the experiment filed under Homo sapiens [1] and 11 µM in the experiment filed under Homo sapiens [2].

`CC(C)C(N)C(=O)N[C@@H](Cc1ccc(F)cc1)c1nc(C(=O)N[C@@H](CC2CCCCC2)C(=O)N[C@@H](CCCNC(=N)N)C(=O)N[C@@H](Cc2ccccc2)C(N)=O)cs1` (stereo partly drawn) (H-[ξV][Phe(4-F)ψ(2,4-Thz)][Cha]RF-NH2) displayed an IC50 in experiment [3] of 2.7 µM.

On to `NCCC(=O)N[C@@H](Cc1ccc(F)cc1)c1nc(C(=O)N[C@@H](CC2CCCCC2)C(=O)N[C@@H](CCCN=C(N)N)C(=O)NCc2ccccc2)co1`, for which the IC50 in experiment [3] was 6.7 µM; in the experiment listed under Homo sapiens [1] it was more than 100 µM; in the experiment listed under Homo sapiens [2], 36 µM.

On to `CNCC(=O)N[C@@H](Cc1ccc(F)cc1)c1nc(C(=O)N[C@@H](CC2CCCCC2)C(=O)N[C@@H](CCCNC(=N)N)C(=O)NCc2ccccc2)c(C)o1`, for which the IC50 in experiment [3] turned out to be 5 µM; in the experiment filed under Homo sapiens [1], 23 µM; in the experiment filed under Homo sapiens [2], 18 µM.

On to `CNCC(=O)N[C@@H](Cc1ccc(F)cc1)c1nc(C(=O)N[C@@H](Cc2ccccc2)C(=O)N[C@@H](CCCN=C(N)N)C(=O)NCc2ccccc2)cs1`, for which the IC50 in experiment [3] worked out at 24 µM; in the experiment filed under Homo sapiens [1], 46 µM; in the experiment filed under Homo sapiens [2] it was 13 µM.

For orientation: IC50 means the concentration that gives 50% inhibition. High values mean weaker potency, low ones greater potency.
